Measurements as given in PubChem BioAssay AID256 (DTP/NCI, 2004).
Values joined by “and” are separate entries in the source; they are usually repeats but may differ in a detail not shown here. Equal values may be shown once. Inconclusive results and toxic doses are left out.

Test system: CD2F1 mice, L1210 leukemia ip, survival T/C
Assay: NCI In Vivo Anticancer Drug Screen. Data for tumor model L1210 Leukemia (intraperitoneal) in CD2F1 (CDF1) mice
Settings: higher = longer survival
How it was run: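 Tumor-bearing mice (transplanted tumor) were split into treated and vehicle control groups, and the measured endpoint of each treated group was divided by that of its vehicle controls.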

[1] = endpoint: mean survival time, dose: 100.0 mg/kg/injection, schedule: Q04DX003 (ip), vehicle: saline with Tween-80
[2] = endpoint: mean survival time, dose: 200.0 mg/kg/injection, schedule: Q04DX003 (ip), vehicle: saline with Tween-80
[3] = endpoint: mean survival time, dose: 400.0 mg/kg/injection, schedule: Q04DX003 (ip), vehicle: saline with Tween-80
[4] = endpoint: mean survival time, dose: 25.0 mg/kg/injection, schedule: Q04DX003 (ip), vehicle: saline with Tween-80
[5] = endpoint: mean survival time, dose: 50.0 mg/kg/injection, schedule: Q04DX003 (ip), vehicle: saline with Tween-80
[6] = endpoint: mean survival time, dose: 100.0 mg/kg/injection, schedule: Q01DX001 (ip), vehicle: saline
[7] = endpoint: mean survival time, dose: 100.0 mg/kg/injection, schedule: Q01DX009 (ip), vehicle: saline

Q: For `[O-]c1cc2c3c(c1)c1cc4c(cc1c[n+]3C=C2)OCO4`, which T/C (endpoint: mean survival time, dose: 3.13 mg/kg/injection, schedule: Q01DX009 (ip), vehicle: other) is on record?
A: 100 % of control

Q: And the T/C (endpoint: mean survival time, dose: 3.13 mg/kg/injection, schedule: Q01DX009 (ip), vehicle: water)?
A: 114 % of control

Q: And the T/C (endpoint: mean survival time, dose: 6.25 mg/kg/injection, schedule: Q01DX009 (ip), vehicle: other)?
A: 109 % of control

Q: What about the T/C (endpoint: mean survival time, dose: 6.25 mg/kg/injection, schedule: Q01DX009 (ip), vehicle: water) of the same compound?
A: 120 % of control and 122 % of control

Q: And the T/C (endpoint: mean survival time, dose: 12.5 mg/kg/injection, schedule: Q01DX009 (ip), vehicle: other)?
A: 110 % of control

Q: What about the T/C (endpoint: mean survival time, dose: 12.5 mg/kg/injection, schedule: Q01DX009 (ip), vehicle: water) of the same compound?
A: 124 % of control

Q: What about the T/C (endpoint: mean survival time, dose: 25.0 mg/kg/injection, schedule: Q01DX009 (ip), vehicle: other) of the same compound?
A: 118 % of control

Q: And the T/C (endpoint: mean survival time, dose: 25.0 mg/kg/injection, schedule: Q01DX009 (ip), vehicle: water)?
A: 150 % of control

Q: What about the T/C (endpoint: mean survival time, dose: 50.0 mg/kg/injection, schedule: Q01DX009 (ip), vehicle: water) of the same compound?
A: 115 % of control

Q: What about the T/C (endpoint: mean survival time, dose: 100.0 mg/kg/injection, schedule: Q01DX009 (ip), vehicle: water) of the same compound?
A: 124 % of control

Q: Which T/C (endpoint: mean survival time, dose: 100.0 mg/kg/injection, schedule: Q01DX009 (ip), vehicle: saline sonified) does the source give for `CCCCCCCCC/C(C)=N\NC(=O)c1ccccc1` here?
A: 100 % of control

Q: What about the T/C (endpoint: mean survival time, dose: 400.0 mg/kg/injection, schedule: Q01DX009 (ip), vehicle: saline sonified) of the same compound?
A: 108 % of control

Q: Which T/C (endpoint: mean survival time, dose: 50.0 mg/kg/injection, schedule: Q01DX009 (ip), vehicle: Klucel (hydroxypropylcellulose) (HPC)) does the source give for `O=[N+]([O-])c1cccc(/C=C/c2ccccn2)c1` here?
A: 98 % of control

Q: And the T/C (endpoint: mean survival time, dose: 100.0 mg/kg/injection, schedule: Q01DX009 (ip), vehicle: Klucel (hydroxypropylcellulose) (HPC))?
A: 98 % of control

Q: And the T/C (endpoint: mean survival time, dose: 200.0 mg/kg/injection, schedule: Q01DX009 (ip), vehicle: Klucel (hydroxypropylcellulose) (HPC))?
A: 90 % of control

Q: With `CC(=O)/C(=N/O)c1ccccc1` as the compound, how does the T/C (endpoint: mean survival time, dose: 75.0 mg/kg/injection, schedule: Q01DX009 (ip), vehicle: saline with Tween-80) read?
A: 102 % of control

Q: What about the T/C [1] of the same compound?
A: 102 % of control

Q: What about the T/C (endpoint: mean survival time, dose: 150.0 mg/kg/injection, schedule: Q01DX009 (ip), vehicle: saline with Tween-80) of the same compound?
A: 94 % of control

Q: What about the T/C [2] of the same compound?
A: 102 % of control

Q: What about the T/C [3] of the same compound?
A: 94 % of control

Q: What does the source list for `OC1c2ccccc2CCc2ccccc21`?
A: T/C [4]: 97 % of control; T/C [5]: 103 % of control; T/C [1]: 101 % of control

Q: What does the source list for `CN1C(=O)C(C)(C)C(=O)C1(C)C`?
A: T/C (endpoint: mean survival time, dose: 25.0 mg/kg/injection, schedule: Q01DX001 (ip), vehicle: saline): 103 % of control; T/C (endpoint: mean survival time, dose: 50.0 mg/kg/injection, schedule: Q01DX001 (ip), vehicle: saline): 104 % of control; T/C [6]: 103 % of control

Q: What does the source list for `CCOc1ccccc1C1=CCCCCC1`?
A: T/C [1]: 98 % of control; T/C [2]: 107 % of control; T/C [3]: 103 % of control

Q: For `CN(C)c1ccc2c(N(C)C)cc(N(C)C)nc2c1`, which T/C (endpoint: mean survival time, dose: 0.78 mg/kg/injection, schedule: Q01DX009 (ip), vehicle: Klucel (hydroxypropylcellulose) (HPC)) is on record?
A: 106 % of control

Q: What about the T/C (endpoint: mean survival time, dose: 1.56 mg/kg/injection, schedule: Q01DX009 (ip), vehicle: Klucel (hydroxypropylcellulose) (HPC)) of the same compound?
A: 102 % of control

Q: And the T/C (endpoint: mean survival time, dose: 3.12 mg/kg/injection, schedule: Q01DX009 (ip), vehicle: Klucel (hydroxypropylcellulose) (HPC))?
A: 104 % of control

Q: What about the T/C (endpoint: mean survival time, dose: 6.25 mg/kg/injection, schedule: Q01DX009 (ip), vehicle: Klucel (hydroxypropylcellulose) (HPC)) of the same compound?
A: 98 % of control

Q: And the T/C (endpoint: mean survival time, dose: 12.5 mg/kg/injection, schedule: Q01DX009 (ip), vehicle: Klucel (hydroxypropylcellulose) (HPC))?
A: 113 % of control and 96 % of control

Q: What about the T/C (endpoint: mean survival time, dose: 25.0 mg/kg/injection, schedule: Q01DX009 (ip), vehicle: Klucel (hydroxypropylcellulose) (HPC)) of the same compound?
A: 88 % of control

Q: `CC(=O)/C(=C\c1ccc(Cl)c(Cl)c1)C(=O)CCN(C)C` was tested. Which T/C (endpoint: median survival time, dose: 12.5 mg/kg/injection, schedule: Q01DX009 (ip), vehicle: saline) did it give?
A: 113 % of control and 98 % of control

Q: And the T/C (endpoint: median survival time, dose: 25.0 mg/kg/injection, schedule: Q01DX009 (ip), vehicle: saline)?
A: 95 % of control and 104 % of control and 109 % of control

Q: What about the T/C (endpoint: median survival time, dose: 50.0 mg/kg/injection, schedule: Q01DX009 (ip), vehicle: saline) of the same compound?
A: 113 % of control and 115 % of control and 110 % of control

Q: What about the T/C (endpoint: median survival time, dose: 100.0 mg/kg/injection, schedule: Q01DX009 (ip), vehicle: saline) of the same compound?
A: 97 % of control and 105 % of control

Q: What does the source list for `O=C1NCCC/C1=N/Nc1ccccc1`?
A: T/C (endpoint: mean survival time, dose: 50.0 mg/kg/injection, schedule: Q04DX002 (ip), vehicle: saline with Tween-80): 100 % of control; T/C (endpoint: mean survival time, dose: 100.0 mg/kg/injection, schedule: Q01DX009 (ip), vehicle: saline with Tween-80): 96 % of control; T/C (endpoint: mean survival time, dose: 100.0 mg/kg/injection, schedule: Q04DX002 (ip), vehicle: saline with Tween-80): 108 % of control; T/C (endpoint: mean survival time, dose: 200.0 mg/kg/injection, schedule: Q01DX009 (ip), vehicle: saline with Tween-80): 96 % of control; T/C (endpoint: mean survival time, dose: 200.0 mg/kg/injection, schedule: Q04DX002 (ip), vehicle: saline with Tween-80): 112 % of control; T/C (endpoint: mean survival time, dose: 400.0 mg/kg/injection, schedule: Q01DX009 (ip), vehicle: saline with Tween-80): 91 % of control

Q: Which T/C (endpoint: mean survival time, dose: 25.0 mg/kg/injection, schedule: Q01DX009 (ip), vehicle: saline) does the source give for `CC(N)C12CC3CC(CC(C3)C1)C2` (stereo unspecified) here?
A: 117 % of control

Q: What about the T/C (endpoint: mean survival time, dose: 50.0 mg/kg/injection, schedule: Q01DX009 (ip), vehicle: saline) of the same compound?
A: 98 % of control

Q: What about the T/C [7] of the same compound?
A: 95 % of control

Q: What does the source list for `Cc1c(N)nc(C(CC(N)=O)NCC(N)C(N)=O)nc1C(=O)NC(C(=O)NC(C)C(O)CC(=O)NC(C(=O)NC(OC1OC(C)C(N)C(O)C1O)C(O)c1nc(-c2nc(C(=O)NCCCC(N)CC(=O)NCCCNCCCCN)cs2)cs1)C(C)O)C(OC1OC(CO)C(O)C(O)C1OC1OC(CO)C(O)C(OC(N)=O)C1O)c1cnc[nH]1` (stereo unspecified)?
A: T/C (endpoint: mean survival time, dose: 1.0 mg/kg/injection, schedule: Q01DX009 (ip), vehicle: saline): 103 % of control; T/C (endpoint: mean survival time, dose: 2.0 mg/kg/injection, schedule: Q01DX009 (ip), vehicle: saline): 101 % of control; T/C (endpoint: mean survival time, dose: 4.0 mg/kg/injection, schedule: Q01DX009 (ip), vehicle: saline): 104 % of control; T/C (endpoint: mean survival time, dose: 8.0 mg/kg/injection, schedule: Q01DX009 (ip), vehicle: saline): 104 % of control; T/C (endpoint: mean survival time, dose: 16.0 mg/kg/injection, schedule: Q01DX009 (ip), vehicle: saline): 86 % of control

Q: With `CCOC(=O)CSCc1ccc(C(C)(C)C)cc1` as the compound, how does the T/C [6] read?
A: 96 % of control

Q: What about the T/C (endpoint: mean survival time, dose: 200.0 mg/kg/injection, schedule: Q01DX001 (ip), vehicle: saline) of the same compound?
A: 98 % of control

Q: And the T/C (endpoint: mean survival time, dose: 400.0 mg/kg/injection, schedule: Q01DX001 (ip), vehicle: saline)?
A: 93 % of control

Q: How did the T/C (endpoint: mean survival time, dose: 10.0 mg/kg/injection, schedule: Q01DX001 (ip), vehicle: saline) turn out when `COC(=O)CSC#N` was run?
A: 111 % of control

Q: What about the T/C (endpoint: mean survival time, dose: 20.0 mg/kg/injection, schedule: Q01DX001 (ip), vehicle: saline) of the same compound?
A: 107 % of control

Q: How did the T/C [7] turn out when `CS(=O)(=O)/C=C(\I)c1ccccc1` was run?
A: 98 % of control

Q: And the T/C (endpoint: mean survival time, dose: 100.0 mg/kg/injection, schedule: Q04DX003 (ip), vehicle: saline)?
A: 104 % of control

Q: What about the T/C (endpoint: mean survival time, dose: 200.0 mg/kg/injection, schedule: Q01DX009 (ip), vehicle: saline) of the same compound?
A: 93 % of control

Q: And the T/C (endpoint: mean survival time, dose: 200.0 mg/kg/injection, schedule: Q04DX003 (ip), vehicle: saline)?
A: 106 % of control

Q: What about the T/C (endpoint: mean survival time, dose: 400.0 mg/kg/injection, schedule: Q01DX009 (ip), vehicle: saline) of the same compound?
A: 95 % of control

Q: And the T/C (endpoint: mean survival time, dose: 400.0 mg/kg/injection, schedule: Q04DX003 (ip), vehicle: saline)?
A: 98 % of control

Q: Which results are given for `CC12CCC(OC3CCCCO3)CC1=CCC1C2CCC2(C)C1CCC2(O)CCN` (stereo unspecified)?
A: T/C (endpoint: mean survival time, dose: 6.25 mg/kg/injection, schedule: Q01DX005 (ip), vehicle: other): 100 % of control; T/C (endpoint: mean survival time, dose: 12.5 mg/kg/injection, schedule: Q01DX005 (ip), vehicle: other): 97 % of control; T/C (endpoint: mean survival time, dose: 15.6 mg/kg/injection, schedule: Q01DX001 (ip), vehicle: Klucel (hydroxypropylcellulose) (HPC)): 104 % of control; T/C (endpoint: mean survival time, dose: 31.2 mg/kg/injection, schedule: Q01DX001 (ip), vehicle: Klucel (hydroxypropylcellulose) (HPC)): 96 % of control; T/C (endpoint: mean survival time, dose: 62.5 mg/kg/injection, schedule: Q01DX001 (ip), vehicle: Klucel (hydroxypropylcellulose) (HPC)): 98 % of control

Q: `Cc1ccc(C)c(C(C)NC2=NCCO2)c1` (stereo unspecified) was tested. Which T/C (endpoint: mean survival time, dose: 12.5 mg/kg/injection, schedule: Q04DX003 (ip), vehicle: saline with Tween-80) did it give?
A: 94 % of control

Q: What about the T/C [4] of the same compound?
A: 93 % of control

Q: What about the T/C [5] of the same compound?
A: 86 % of control and 92 % of control

Q: What about the T/C [1] of the same compound?
A: 91 % of control

Q: How did the T/C (endpoint: mean survival time, dose: 100.0 mg/kg/injection, schedule: Q01DX001 (ip), vehicle: saline with Tween-80) turn out when `Cc1ccc(S(=O)(=O)OCCc2ccccc2)cc1` was run?
A: 97 % of control

Q: What about the T/C (endpoint: mean survival time, dose: 200.0 mg/kg/injection, schedule: Q01DX001 (ip), vehicle: saline with Tween-80) of the same compound?
A: 97 % of control

Q: And the T/C (endpoint: mean survival time, dose: 400.0 mg/kg/injection, schedule: Q01DX001 (ip), vehicle: saline with Tween-80)?
A: 94 % of control
